The source made the active and inactive calls. The rule behind the calls is not given here.
How the values were obtained:
A549 [1] = assay: Induction of apoptosis in human A549 cells assessed as necrotic cells at 2.5 uM for 24 hrs by annexin V-PI staining based flow cytometric analysis (reference value: 1.3%); assay type: functional
NCI-H2030 [2] = assay: Downregulation of XIAP mRNA expression level in human NCI-H2030 cells at 0.1 to 1 uM for 24 hrs by qRT-PCR analysis; assay type: functional, cell-based; conditions: dose 0.1-1 µM
A549 [3] = assay: Induction of cell cycle arrest in human A549 cells assessed as accumulation of cells at G2/M phase at 0.1 uM for 24 hrs by Click-iT EdU Alexa Fluor 647 flow cytometric assay kit analysis (reference value: 3%); assay type: functional
NCI-H1373 [4] = assay: Induction of cell cycle arrest in human NCI-H1373 cells assessed as accumulation of cells at S phase at 1 uM for 24 hrs by DAPI staining analysis (reference value: 40%); assay type: functional
NCI-H1373 [5] = assay: Induction of TRAIL dependent apoptosis in human NCI-H1373 cells assessed as late apoptotic cells at 1 uM by annexin V-PI staining based flow cytometric analysis (reference value: 8.3%); assay type: functional
A549 [6] = assay: Antitumor activity against human A549 cells assessed as test to control tumor ratio administered at 80 mg/kg, ip for 7 days along with cisplatin for 5 days follwed by compound treatment for 14 days relative to control; assay type: functional; conditions: time 7 day
NCI-H23 = assay: Downregulation of XIAP mRNA expression level in human NCI-H23 cells at 0.1 to 1 uM for 24 hrs by qRT-PCR analysis; assay type: functional, cell-based; conditions: dose 0.1-1 µM
NCI-H1373 [7] = assay: Downregulation of c-MYC protein expression level in human NCI-H1373 cells at 1 uM for 24 hrs by […] analysis; assay type: functional, cell-based
NCI-H2030 [8] = assay: Induction of TRAIL dependent apoptosis in human NCI-H2030 cells by annexin V-PI staining based flow cytometric analysis; assay type: functional, cell-based
NCI-H1373 [9] = assay: Downregulation of c-MYC mRNA expression level in human NCI-H1373 cells at 0.1 to 1 uM for 24 hrs by qRT-PCR analysis; assay type: functional, cell-based; conditions: dose 0.1-1 µM
A549 [10] = assay: Induction of cell cycle arrest in human A549 cells assessed as accumulation of cells at S phase at 0.25 uM for 24 hrs by Click-iT EdU Alexa Fluor 647 flow cytometric assay kit analysis (reference value: 35%); assay type: functional
NCI-H1373 [11] = assay: Induction of TRAIL dependent apoptosis in human NCI-H1373 cells assessed as necrotic cells at 1 uM in presence of […] by annexin V-PI staining based flow cytometric analysis (reference value: 3.6%); assay type: functional
DV-90 [12] = assay: Downregulation of XIAP mRNA expression level in human DV-90 cells at 0.1 to 1 uM for 24 hrs by qRT-PCR analysis; assay type: functional, cell-based; conditions: dose 0.1-1 µM
NCI-H460 [13] = assay: Downregulation of XIAP protein expression level in human NCI-H460 cells at 1 uM for 24 hrs by […] analysis; assay type: functional, cell-based
NCI-H1373 [14] = assay: Downregulation of FLIP mRNA expression level in human NCI-H1373 cells at 0.1 to 1 uM for 24 hrs by qRT-PCR analysis; assay type: functional, cell-based; conditions: dose 0.1-1 µM
A549 [15] = assay: Induction of cell cycle arrest in human A549 cells assessed as accumulation of cells at G0/G1 phase at 0.1 uM for 24 hrs by Click-iT EdU Alexa Fluor 647 flow cytometric assay kit analysis (reference value: 61%); assay type: functional
NCI-H1373 [16] = assay: Induction of TRAIL dependent apoptosis in human NCI-H1373 cells by annexin V-PI staining based flow cytometric analysis; assay type: functional, cell-based
NCI-H2030 [17] = assay: Downregulation of c-MYC protein level in human NCI-H2030 cells at 100 to 5000 nM upto 24 hrs by Western blot analysis; assay type: functional, cell-based; conditions: dose 100-5000 nM
A549 [18] = assay: Induction of apoptosis in human A549 cells assessed as viable cells at 2.5 uM for 24 hrs by annexin V-PI staining based flow cytometric analysis (reference value: 96%); assay type: functional; conditions: read-out: Activity
DV-90 [19] = assay: Downregulation of […] gene in human DV-90 cells after 24 hrs by microarray profiling analysis; assay type: functional, cell-based
A549 [20] = assay: Induction of apoptosis in human A549 cells assessed as necrotic cells at 0.5 uM for 24 hrs by annexin V-PI staining based flow cytometric analysis (reference value: 1.3%); assay type: functional
NCI-H358 = assay: Antiproliferative activity against human NCI-H358 cells at 500 to 2500 nM in presence of TNF by cell titre glo assay; assay type: functional, cell-based; conditions: dose 500-2500 nM
A549 [21] = assay: Induction of cell cycle arrest in human A549 cells assessed as accumulation of cells at G0/G1 phase at 0.25 uM for 24 hrs by Click-iT EdU Alexa Fluor 647 flow cytometric assay kit analysis (reference value: 61%); assay type: functional
NCI-H2030 [22] = assay: Downregulation of c-MYC mRNA expression level in human NCI-H2030 cells at 0.1 to 1 uM for 24 hrs by qRT-PCR analysis; assay type: functional, cell-based; conditions: dose 0.1-1 µM
DV-90 [23] = assay: Induction of apoptosis in human DV-90 cells assessed as late apoptotic cells at 2.5 uM for 24 hrs by annexin V-PI staining based flow cytometric analysis (reference value: 11.4%); assay type: functional
NCI-H1373 [24] = assay: Induction of apoptosis in human NCI-H1373 cells assessed as early apoptotic cells at 2.5 uM for 24 hrs by annexin V-PI staining based flow cytometric analysis (reference value: 0.6%); assay type: functional
DV-90 [25] = assay: Induction of cell cycle arrest in human DV-90 cells assessed as accumulation of cells at G0/G1 phase at 0.25 uM for 24 hrs by Click-iT EdU Alexa Fluor 647 flow cytometric assay kit analysis (reference value: 45%); assay type: functional
NCI-H460 [26] = assay: Induction of cell cycle arrest in human NCI-H460 cells assessed as accumulation of cells at G0/G1 phase at 0.1 uM for 24 hrs by Click-iT EdU Alexa Fluor 647 flow cytometric assay kit analysis (reference value: 45%); assay type: functional
NCI-H460 [27] = assay: Induction of cell cycle arrest in human NCI-H460 cells assessed as accumulation of cells at S phase at 1 uM for 24 hrs by Click-iT EdU Alexa Fluor 647 flow cytometric assay kit analysis (reference value: 54%); assay type: functional
DV-90 [28] = assay: Induction of cell cycle arrest in human DV-90 cells assessed as accumulation of cells at G0/G1 phase at 1 uM for 24 hrs by Click-iT EdU Alexa Fluor 647 flow cytometric assay kit analysis (reference value: 45%); assay type: functional
DV-90 [29] = assay: Induction of cell cycle arrest in human DV-90 cells assessed as accumulation of cells at G2/M phase at 0.1 uM for 24 hrs by Click-iT EdU Alexa Fluor 647 flow cytometric assay kit analysis (reference value: 21%); assay type: functional
NCI-H460 [30] = assay: Induction of apoptosis in human NCI-H460 cells assessed as early apoptotic cells at 0.5 uM for 24 hrs by annexin V-PI staining based flow cytometric analysis (reference value: 0.3%); assay type: functional
DV-90 [31] = assay: Induction of apoptosis in human DV-90 cells assessed as necrotic cells at 0.5 uM for 48 hrs by annexin V-PI staining based flow cytometric analysis (reference value: 8.4%)
NCI-H460 [32] = assay: Induction of apoptosis in human NCI-H460 cells assessed as late apoptotic cells at 0.5 uM for 24 hrs by annexin V-PI staining based flow cytometric analysis (reference value: 3.7%); assay type: functional

Structure (SMILES): Cc1sc2c(c1C)C(c1ccc(Cl)cc1)=N[C@@H](CC(=O)OC(C)(C)C)c1nnc(C)n1-2
- Activity (A549 [1]): 0.9%
- Activity (NCI-H2030 [2]): Active
- Activity (A549 [3]): 2%
- Activity (NCI-H1373 [4]): 7%
- Activity (NCI-H1373 [5]): 14%
- T/C (A549 [6]): 41%
- Activity (NCI-H23): Active
- Activity (NCI-H1373 [7]): Active
- Activity (NCI-H2030 [8]): Active
- Activity (NCI-H1373 [9]): Active
- Activity (A549 [10]): 33%
- Activity (NCI-H1373 [11]): 40.2%
- Activity (DV-90 [12]): Active
- Activity (NCI-H460 [13]): Active
- Activity (NCI-H1373 [14]): Active
- Activity (A549 [15]): 61%
- Activity (NCI-H1373 [16]): Active
- Activity (NCI-H2030 [17]): inactive
- viability at 2.5 µM (A549 [18]): 97%
- Activity (DV-90 [19]): Active
- Activity (A549 [20]): 1.2%
- Activity (NCI-H358): Active
- Activity (A549 [21]): 63%
- Activity (NCI-H2030 [22]): Active
- Activity (DV-90 [23]): 16%
- Activity (NCI-H1373 [24]): 2.9%

Structure (SMILES): CCNC(=O)C[C@@H]1N=C(c2ccc(Cl)cc2)c2cc(OC)ccc2-n2c(C)nnc21 [MOLIBRESIB]
- Activity (DV-90 [25]): 49%
- Activity (NCI-H460 [26]): 45%
- Activity (NCI-H460 [27]): 47%
- Activity (DV-90 [28]): 50%

Structure (SMILES): Cc1sc2c(c1C)C(c1ccc(Cl)cc1)=N[C@@H](CC(=O)Nc1ccc(O)cc1)c1nnc(C)n1-2 [BIRABRESIB]
- Activity (DV-90 [29]): 29%
- Activity (NCI-H460 [30]): 0.2%
- Activity (DV-90 [31]): 27.6%
- Activity (NCI-H460 [32]): 4.6%

From ChEMBL document CHEMBL5712891, “Inhibition of BET bromodomain-dependent XIAP and FLIP expression sensitizes KRAS-mutated NSCLC to pro-apoptotic agents” (Cell Death Dis, 2016)
